Reference: patent publication US20060240048A1 (priority 2002, published 2006)

Target: T1, human cannabinoid CB2 receptor (Homo sapiens, UniProt P34972)
T1 construct: expressed in transfected cells; host or cells: Saccharomyces cerevisiae strain MMY23
Test: Cannabinoid CB2 receptor agonist activity, yeast reporter assay (FDGlu fluorescence);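 as to Emax: 100% equals maximal response of reference agonist HU210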
Format: cell-based
Settings: for Emax: read-out: efficacy value (Emax) at the cloned human cannabinoid CB2 receptor

T1 sequence (P34972 whole entry): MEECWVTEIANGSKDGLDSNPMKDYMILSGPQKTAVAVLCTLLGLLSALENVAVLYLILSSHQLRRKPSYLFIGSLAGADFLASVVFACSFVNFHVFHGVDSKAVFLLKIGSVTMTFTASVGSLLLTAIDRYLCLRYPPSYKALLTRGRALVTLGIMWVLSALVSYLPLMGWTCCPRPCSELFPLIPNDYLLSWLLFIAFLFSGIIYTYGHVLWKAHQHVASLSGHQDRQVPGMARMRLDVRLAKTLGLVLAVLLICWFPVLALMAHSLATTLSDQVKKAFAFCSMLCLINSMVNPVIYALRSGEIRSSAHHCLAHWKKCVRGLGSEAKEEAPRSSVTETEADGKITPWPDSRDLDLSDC

| SMILES | EC50 [nM] | Emax [%] |
| --- | --- | --- |
| CC(C)c1cc(Nc2ccc(C#N)c(Cl)c2)ncc1C(=O)NCC1CCCC1 [Example 247, 6-(3-Chloro-4-cyano-phenytamino)-N-cyclopentylmethyl-4-isopropyl-nicotinamide] | < 300 | > 50 |
| CC(C)c1cc(Nc2ccc(Br)cc2Cl)ncc1C(=O)NCC1CCCC1 [Example 248, 6-(4-bromo-2-chlorophenylamino)-N-cyclopentylmethyl-4-isopropyl-nicotinamide] | < 300 | > 50 |
| CC(C)c1cc(Nc2ccc(F)cc2F)ncc1C(=O)NCC1CCC1 [Example 249, N-Cyclobutylmethyl-6-(2,4-difluoro-phenylamino)-4-isopropyl-nicotinamide] | < 300 | > 50 |
| CC(C)c1cc(Nc2ccc(Cl)cc2Cl)ncc1C(=O)NCC1CCC1 [Example 250, N-Cyclobutylmethyl-6-(2,4-dichloro-phenylamino)-4-isopropyl-nicotinamide] | < 300 | > 50 |
| CC(C)c1cc(Nc2ccc(Cl)c(Cl)c2)ncc1C(=O)NCC1CCC1 [Example 251, N-Cyclobutylmethyl-6-(3,4-dichtoro-phenylamino)-4-isopropyl-nicotinamide] | < 300 | > 50 |
| CC(C)c1cc(Nc2cccc(Cl)c2Cl)ncc1C(=O)NCC1CCC1 [Example 252, N-Cyclobutylmethyl-6-(2,3-dichloro-phenylamino)-4-isopropyl-nicotinamide] | < 300 | > 50 |
| CC(C)c1cc(Nc2ccc(F)cc2Cl)ncc1C(=O)NCC1CCC1 [Example 253, 6-(2-Chloro-4-fluoro-phenylamino)-N-cyclobutylmethyl-4-isopropyl-nicotinamide] | < 300 | > 50 |
| CC(C)c1cc(Nc2ccc(F)c(Cl)c2)ncc1C(=O)NCC1CCC1 [Example 254, 6-(3-Chloro-4-fluoro-phenylamino)-N-cyclobutylmethyl-4-isopropyl-nicotinamide] | < 300 | > 50 |
| CC(C)c1cc(Nc2ccc(Br)cc2Cl)ncc1C(=O)NCC1CCC1 [Example 255, 6-(4-Bromo-2-chloro-phenylamino)-N-cyclobutylmethyl-4-isopropyl-nicotinamide] | < 300 | > 50 |
| CC(C)c1cc(Nc2ccc(Cl)cc2Br)ncc1C(=O)NCC1CCC1 [Example 256, 6-(2-Bromo-4-chloro-phenylamino)-N-cyclobutylmethyl-4-isopropyl-nicotinamide] | < 300 | > 50 |
| CC(C)c1cc(Nc2cccc(C(F)(F)F)c2F)ncc1C(=O)NCC1CCC1 [Example 257, N-cyclobutylmethyl-6-(2-fluoro-3-trifluoromethyl-phenylamino)-4-isopropyl-nicotinamide] | < 300 | > 50 |
| Cc1cc(Cl)ccc1Nc1cc(C(C)C)c(C(=O)NCC2CCC2)cn1 [Example 258, 6-(4-Chloro-2-methyl-phenylamino)-N-cyclobutylmethyl-4-isopropyl-nicotinamide] | < 300 | > 50 |
| CC(C)c1cc(Nc2ccc(C#N)cc2Cl)ncc1C(=O)NCC1CCC1 [Example 259, 6-(2-Chloro-4-cyano-phenylamino)-N-cyclobutylmethyl-4-isopropyl-nicotinamide] | < 300 | > 50 |
| CC(C)c1cc(Nc2ccc(C#N)cc2F)ncc1C(=O)NCC1CCC1 [Example 260, 6-(4-Cyano-2-fluoro-phenylamino)-N-cyclobutylmethyl-4-isopropyl-nicotinamide] | < 300 | > 50 |
| Cc1cc(C#N)ccc1Nc1cc(C(C)C)c(C(=O)NCC2CCC2)cn1 [Example 261, 6-(4-Cyano-2-methyl-phenylamino)-N-cyclobutylmethyl-4-isopropyl-nicotinamide] | < 300 | > 50 |
| CC(C)c1cc(Nc2ccc(C(F)(F)F)cc2Cl)ncc1C(=O)NCC1CCC1 [Example 262, 6-(2-Chloro-4-trifluoromethyl-phenylamino)-N-cyclobutylmethyl-4-isopropyl-nicotinamide] | < 300 | > 50 |
| CC(C)c1cc(Nc2cc(Cl)cc(Cl)c2)ncc1C(=O)NCC1CCC1 [Example 263, N-Cyclobutylmethyl-6-(3,5-dichloro-phenylamino)-4-isopropyl-nicotinamide] | < 300 | > 50 |
| CC(C)c1cc(Nc2cc(Cl)ccc2Cl)ncc1C(=O)NCC1CCC1 [Example 264, N-Cyclobutylmethyl-6-(2,5-dichloro-phenylamino)-4-isopropyl-nicotinamide] | < 300 | > 50 |
| CC(C)c1cc(Nc2cc(F)cc(F)c2)ncc1C(=O)NCC1CCC1 [Example 265, N-Cyclobutylmethyl-6-(3,5-difluoro-phenylamino)-4-isopropyl-nicotinamide] | < 300 | > 50 |
| CC(C)c1cc(Nc2cc(Cl)ccc2F)ncc1C(=O)NCC1CCC1 [Example 266, 6-(5-Chloro-2-fluoro-phenylamino)-N-cyclobutylmethyl-4-isopropyl-nicotinamide] | < 300 | > 50 |

| SMILES | EC50 [nM] | Emax [%] |
| --- | --- | --- |
| CC(C)c1cc(Nc2cc(F)ccc2Cl)ncc1C(=O)NCC1CCC1 [Example 267, 6-(2-Chloro-5-fluoro-phenylamino)-N-cyclobutytmethyl-4-isopropyl-nicotinamide] | < 300 | > 50 |
| CC(C)CNC(=O)c1cnc(Nc2cccc(Cl)c2)cc1C(C)C [Example 268, 6-(3-Chloro-phenylamino)-N-isobutyl-4-isopropyl-nicotinamide] | – | > 50 |
| CC(C)CNC(=O)c1cnc(Nc2cccc(C(F)(F)F)c2)cc1C(C)C [Example 269, N-Isobutyl-4-isopropyl-6-(3-trifluoromethyl-phenylamlno)-nicotinamide] | < 300 | > 50 |
| CC(C)CNC(=O)c1cnc(Nc2ccc(Cl)c(Cl)c2)cc1C(C)C [Example 270, 6-(3,4-Dichloro-phenylamino)-N-isobutyl-4-isopropyl-nicotinamide] | < 300 | > 50 |
| CC(C)CNC(=O)c1cnc(Nc2cccc(C(F)(F)F)c2F)cc1C(C)C [Example 271, 6-(2-Fluoro-3-trifluoromethyl-phenylamino)-N-isobutyl-4-isopropyl-nicotinamide] | < 300 | > 50 |
| Cc1c(Br)cccc1Nc1cc(C(C)C)c(C(=O)NCC(C)C)cn1 [Example 272, 6-(3-Bromo-2-methyl-phenylamino)-N-isobutyl-4-isopropyl-nicotinamide] | < 300 | > 50 |
| CC(C)CNC(=O)c1cnc(Nc2ccc(Cl)cc2Cl)cc1C(C)C [Example 273, 6-(2,4-Dichloro-phenylamtno)-N-isobutyl-4-isopropyl-nicotinamide] | < 300 | > 50 |
| CC(C)CNC(=O)c1cnc(Nc2cc(F)ccc2Cl)cc1C(C)C [Example 274, 6-(2-Chloro-5-fluoro-phenylamino)-N-isobutyl-4-isopropyl-nicotinamide] | < 300 | > 50 |
| CC(C)CNC(=O)c1cnc(Nc2cc(F)cc(F)c2)cc1C(C)C [Example 275, 6-(3,5-Difluoro-phenylamino)-N-isobutyl-4-isopropyl-nicotinamide] | < 300 | > 50 |
| CC(C)CNC(=O)c1cnc(Nc2cc(Cl)ccc2F)cc1C(C)C [Example 276, 6-(5-Chloro-2-fluoro-phenylamino)-N-isobutyl-4-isopropyl-nicotinamide] | < 300 | > 50 |
| CC(C)CNC(=O)c1cnc(Nc2cccc(Br)c2)cc1C(C)C [Example 277, 6-(3-Bromo-phenylamino)-N-isobutyl-4-isopropyl-nicotinamide] | < 300 | > 50 |
| CC(C)c1cc(Nc2ccc(Cl)cc2Cl)ncc1C(=O)NCC1CCS(=O)(=O)C1 (stereo not shown) [Example 278, 6-(2,4-Dichloro-phenylamino)-N-(1,1-dioxo-tetrahydro-1/^6-thiophen-3-ylmethyl)-4-isopropyl-nicotinamide] | < 300 | > 50 |
| CC(C)c1cc(Nc2ccc(Br)c(F)c2)ncc1C(=O)NCC1CCS(=O)(=O)C1 (stereo not shown) [Example 279, 6-(4-Bromo-3-fluoro-phenylamino)-N-(1,1-dioxo-tetrahydro-1/^6-thiophen-3-ylmethyl)-4-isopropyl-nicotinamide] | < 300 | > 50 |
| CC(C)c1cc(Nc2ccc(OC(F)(F)F)cc2Br)ncc1C(=O)NCC1CCC1 [Example 291, 6-(2-Bromo-4-trifluoromethoxy-phenylamino)-N-cyclobutylmethyl-4-isopropyl-nicotinamide] | – | > 50 |
| CC(C)c1cc(Nc2ccc(C#N)cc2F)ncc1C(=O)NCC1CCCC1 [Example 293, 6-(4-Cyano-2-fluoro-phenylamino)-N-cyclopentylmethyl-4-isopropyl-nicotinamide] | < 300 | > 50 |
| CC(C)c1cc(Nc2ccc(Br)c(C(F)(F)F)c2)ncc1C(=O)NCC1CCOCC1 [Example 294, 6-(4-Bromo-3-trifluoromethyl-phenylamino)-4-isopropyl-N-(tetrahydropyran-4-ylmethyl)-nicotinamide] | – | > 50 |
| CC(C)c1cc(Nc2ccc(F)c(C(F)(F)F)c2)ncc1C(=O)NCC1CCOCC1 [Example 295, 6-(4-Fluoro-3-trifluoromethyl-phenylamino)-4-isopropyl-N-(tetrahydropyran-4-ylmethyl)-nicotinamide] | < 300 | > 50 |
| CC(C)c1cc(Nc2ccc(Br)c(Br)c2)ncc1C(=O)NCC1CCOCC1 [Example 296, 6-(3,4-Dibromo-phenylamino)-4-isopropyl-N-(tetrahydropyran-4-ylmethyl)-nicotinamide] | < 300 | > 50 |
| CC(C)c1cc(Nc2ccc(Br)c(F)c2)ncc1C(=O)NCC1CCOCC1 [Example 297, 6-(4-Bromo-3-fluoro-phenylamino)-4-isopropyl-N-(tetrahydropyran-4-ylmethyl)-nicotinamide] | < 300 | > 50 |
| Cc1cccc(Nc2cc(C(C)C)c(C(=O)NCC3CCOCC3)cn2)c1C#N [Example 303, 6-(2-Cyano-3-methyl-phenylamino)-4-isopropyl-N-(tetrahydropyran-4-ylmethyl)-nicotinamide] | – | > 50 |
